Test results reported in PubChem BioAssay AID1259407 (Chemical Carcinogenesis Research Information System (CCRIS), 2018).
Activity calls are given as the source filed them. How the calls were made is not given here.

Tested on: CCRIS mutagenicity, Ames/micronucleus/aberration tests
Experiment: CCRIS mutagenicity studies
[1] = Test System: AMES SALMONELLA TYPHIMURIUM, Strain/Indicator: TA98, Metabolic Activation: NONE, Method: PREINCUBATION
[2] = Test System: AMES SALMONELLA TYPHIMURIUM, Strain/Indicator: TA100, Metabolic Activation: NONE, Method: PREINCUBATION
[3] = Test System: AMES SALMONELLA TYPHIMURIUM, Strain/Indicator: TA100, Metabolic Activation: NONE, Method: STANDARD PLATE

SMILES: c1ccc(Nc2ccc(Nc3ccccc3)cc2)cc1
- mutagenic call (End Point: IN VITRO CHROMOSOMAL ABERRATIONS, Test System: CHINESE HAMSTER LUNG CELLS (CHL), Metabolic Activation: RAT, LIVER, S-9, KC-400): inactive; negative
- mutagenic call (End Point: IN VITRO CHROMOSOMAL ABERRATIONS, Test System: CHINESE HAMSTER OVARY CELLS (CHO), Metabolic Activation: NONE): inactive; negative
- mutagenic call (End Point: IN VITRO CHROMOSOMAL ABERRATIONS, Test System: CHINESE HAMSTER OVARY CELLS (CHO), Metabolic Activation: RAT, LIVER, S-9, AROCLOR 1254): inactive; negative
- mutagenic call (End Point: IN VITRO CHROMOSOMAL ABERRATIONS, Test System: CHL CELLS, Metabolic Activation: RAT, LIVER, S-9, SODIUM PHENOBARBITAL AND 5,6-BENZOFLAVONE): inactive; negative; authors report equivocal results for structural changes at 0.08 and 0.
- mutagenic call (Test System: AMES SALMONELLA TYPHIMURIUM, Strain/Indicator: TA98, Metabolic Activation: HAMSTER, LIVER, S-9, AROCLOR 1254 (30%), Method: PREINCUBATION): active; positive
- mutagenic call [1]: inactive; negative
- mutagenic call (Test System: AMES SALMONELLA TYPHIMURIUM, Strain/Indicator: TA98, Metabolic Activation: NONE, Method: STANDARD PLATE): inactive; negative
- mutagenic call (Test System: AMES SALMONELLA TYPHIMURIUM, Strain/Indicator: TA98, Metabolic Activation: RAT, LIVER, S-9, AROCLOR 1254 (30%), Method: PREINCUBATION): active; positive
- mutagenic call (Test System: AMES SALMONELLA TYPHIMURIUM, Strain/Indicator: TA98, Metabolic Activation: S-9, Method: STANDARD PLATE): inactive; negative
- mutagenic call (Test System: AMES SALMONELLA TYPHIMURIUM, Strain/Indicator: TA100, Metabolic Activation: HAMSTER, LIVER, S-9, AROCLOR 1254 (30%), Method: PREINCUBATION): inactive; negative
- mutagenic call [2]: inactive; negative
- mutagenic call [3]: inactive; negative
- mutagenic call (Test System: AMES SALMONELLA TYPHIMURIUM, Strain/Indicator: TA100, Metabolic Activation: RAT, LIVER, S-9, AROCLOR 1254 (30%), Method: PREINCUBATION): inactive; negative
- mutagenic call (Test System: AMES SALMONELLA TYPHIMURIUM, Strain/Indicator: TA100, Metabolic Activation: S-9, Method: STANDARD PLATE): inactive; negative

SMILES: O=Cc1ccc(Cl)cc1
- mutagenic call [1]: inactive; negative
- mutagenic call (Test System: AMES SALMONELLA TYPHIMURIUM, Strain/Indicator: TA98, Metabolic Activation: RAT LIVER S-9, PCB, Method: PREINCUBATION): inactive; negative
- mutagenic call [2]: inactive; negative
- mutagenic call (Test System: AMES SALMONELLA TYPHIMURIUM, Strain/Indicator: TA100, Metabolic Activation: RAT LIVER S-9, AROCLOR 1254, Method: PREINCUBATION): inactive; negative
- mutagenic call (Test System: AMES SALMONELLA TYPHIMURIUM, Strain/Indicator: TA100, Metabolic Activation: RAT LIVER S-9, PCB, Method: PREINCUBATION): inactive; negative
- mutagenic call (Test System: AMES SALMONELLA TYPHIMURIUM, Strain/Indicator: TA102, Metabolic Activation: NONE, Method: PREINCUBATION): inactive; negative
- mutagenic call (Test System: AMES SALMONELLA TYPHIMURIUM, Strain/Indicator: TA102, Metabolic Activation: RAT LIVER S-9, AROCLOR 1254, Method: PREINCUBATION): inactive; negative
- mutagenic call (Test System: AMES SALMONELLA TYPHIMURIUM, Strain/Indicator: TA104, Metabolic Activation: NONE, Method: PREINCUBATION): inactive; negative
- mutagenic call (Test System: AMES SALMONELLA TYPHIMURIUM, Strain/Indicator: TA104, Metabolic Activation: RAT LIVER S-9, AROCLOR 1254, Method: PREINCUBATION): inactive; negative
- mutagenic call (Test System: AMES SALMONELLA TYPHIMURIUM, Strain/Indicator: TA104, Metabolic Activation: RAT LIVER S-9, PCB, Method: PREINCUBATION): inactive; negative
- mutagenic call (Test System: E. COLI, Strain/Indicator: WP2 UVRA, Metabolic Activation: NONE, Method: PREINCUBATION): inactive; negative
- mutagenic call (Test System: E. COLI, Strain/Indicator: WP2 UVRA, Metabolic Activation: RAT LIVER S-9, PCB, Method: PREINCUBATION): inactive; negative
- mutagenic call (Test System: MOUSE LYMPHOMA, Strain/Indicator: L5178Y (TK+/TK-), Metabolic Activation: NONE, Method: SUSPENSION/PLATE): inactive; positive. reevaluation of results: negative
- mutagenic call (Test System: Mouse lymphoma, Strain/Indicator: L5178Y (tk+/tk-), Metabolic Activation: Rat, Liver, S-9, Aroclor 1254, Method: Suspension/plate): inactive; negative

SMILES: O=[N+]([O-])c1ccc2c(c1)oc1ccc([N+](=O)[O-])cc12
- mutagenic call (Test System: AMES SALMONELLA TYPHIMURIUM, Strain/Indicator: TA98(1,8-DNP6), Metabolic Activation: NONE, Method: PREINCUBATION): active; positive
- mutagenic call (Test System: AMES SALMONELLA TYPHIMURIUM, Strain/Indicator: TA98(1,8-DNP6), Metabolic Activation: NONE, Method: SUSPENSION): active; positive
- mutagenic call (Test System: AMES SALMONELLA TYPHIMURIUM, Strain/Indicator: TA98(1,8-DNP6), Metabolic Activation: RAT, LIVER, S-9, PCB (5%), Method: PREINCUBATION): active; positive
- mutagenic call (Test System: AMES SALMONELLA TYPHIMURIUM, Strain/Indicator: TA98(NR), Metabolic Activation: NONE, Method: PREINCUBATION): inactive; negative
- mutagenic call (Test System: AMES SALMONELLA TYPHIMURIUM, Strain/Indicator: TA98(NR), Metabolic Activation: NONE, Method: SUSPENSION): inactive; negative
- mutagenic call (Test System: AMES SALMONELLA TYPHIMURIUM, Strain/Indicator: TA98(NR), Metabolic Activation: RAT, LIVER, S-9 (10%), Method: PREINCUBATION): active; positive
- mutagenic call (Test System: AMES SALMONELLA TYPHIMURIUM, Strain/Indicator: TA98(NR), Metabolic Activation: RAT, LIVER, S-9, 3-METHYLCHOLANTHRENE (10%), Method: PREINCUBATION): active; positive
- mutagenic call (Test System: AMES SALMONELLA TYPHIMURIUM, Strain/Indicator: TA98(NR), Metabolic Activation: RAT, LIVER, S-9, BETA-NAPHTHOFLAVONE (10%), Method: PREINCUBATION): active; positive
- mutagenic call (Test System: AMES SALMONELLA TYPHIMURIUM, Strain/Indicator: TA98(NR), Metabolic Activation: RAT, LIVER, S-9, PCB (5 OR 10%), Method: PREINCUBATION): active; positive
- mutagenic call (Test System: AMES SALMONELLA TYPHIMURIUM, Strain/Indicator: TA98(NR), Metabolic Activation: RAT, LIVER, S-9, PHENOBARBITAL (10%), Method: PREINCUBATION): active; positive
- mutagenic call [1]: active; positive
- mutagenic call (Test System: AMES SALMONELLA TYPHIMURIUM, Strain/Indicator: TA98, Metabolic Activation: NONE, Method: SUSPENSION): active; positive
- mutagenic call (Test System: AMES SALMONELLA TYPHIMURIUM, Strain/Indicator: TA98, Metabolic Activation: RAT, LIVER, S-9, PCB (5%), Method: PREINCUBATION): active; positive
- mutagenic call (Test System: AMES SALMONELLA TYPHIMURIUM, Strain/Indicator: TA98, Metabolic Activation: RAT, LIVER, S-9, PCB, Method: SUSPENSION): active; positive
- mutagenic call [2]: inactive; negative
- mutagenic call (Test System: AMES SALMONELLA TYPHIMURIUM, Strain/Indicator: TA100, Metabolic Activation: NONE, Method: SUSPENSION): inactive; negative
- mutagenic call (Test System: AMES SALMONELLA TYPHIMURIUM, Strain/Indicator: TA100, Metabolic Activation: RAT, LIVER, S-9, PCB (5%), Method: PREINCUBATION): inactive; negative
- mutagenic call (Test System: AMES SALMONELLA TYPHIMURIUM, Strain/Indicator: TA100, Metabolic Activation: RAT, LIVER, S-9, PCB, Method: SUSPENSION): active; positive

SMILES: Cc1c2ccccc2c(CCl)c2ccc3ccccc3c12
- mutagenic call [3]: active; positive
- mutagenic call (Test System: AMES SALMONELLA TYPHIMURIUM, Strain/Indicator: TA1537, Metabolic Activation: NONE, Method: STANDARD PLATE): active; positive

SMILES: Cn1c(N)nc2ccc3ncccc3c21
- mutagenic call (Test System: AMES SALMONELLA TYPHIMURIUM, Strain/Indicator: TA98, Metabolic Activation: RAT, LIVER, S-9, AROCLOR 1254, Method: PREINCUBATION): active; positive
- mutagenic call (Test System: AMES SALMONELLA TYPHIMURIUM, Strain/Indicator: TA100, Metabolic Activation: RAT, LIVER, S-9, AROCLOR 1254, Method: PREINCUBATION): active; positive

SMILES: CC(=O)O[C@H]1[C@H](OC(C)=O)COC(Nc2ccc([N+](=O)[O-])cc2)[C@@H]1OC(C)=O (some centres not stated)
- mutagenic call [3]: inactive; negative

SMILES: O=S(=O)(O)OCc1c2ccccc2c(CO)c2c1ccc1ccccc12
- mutagenic call [1]: active; positive
